One test deals with T1, hTLR8 (Homo sapiens, UniProt Q9NR97).
T1 construct: host or cells: HEK-Blue hTLR8 (HEK293-derived)
T1 sequence (Q9NR97 27-1041): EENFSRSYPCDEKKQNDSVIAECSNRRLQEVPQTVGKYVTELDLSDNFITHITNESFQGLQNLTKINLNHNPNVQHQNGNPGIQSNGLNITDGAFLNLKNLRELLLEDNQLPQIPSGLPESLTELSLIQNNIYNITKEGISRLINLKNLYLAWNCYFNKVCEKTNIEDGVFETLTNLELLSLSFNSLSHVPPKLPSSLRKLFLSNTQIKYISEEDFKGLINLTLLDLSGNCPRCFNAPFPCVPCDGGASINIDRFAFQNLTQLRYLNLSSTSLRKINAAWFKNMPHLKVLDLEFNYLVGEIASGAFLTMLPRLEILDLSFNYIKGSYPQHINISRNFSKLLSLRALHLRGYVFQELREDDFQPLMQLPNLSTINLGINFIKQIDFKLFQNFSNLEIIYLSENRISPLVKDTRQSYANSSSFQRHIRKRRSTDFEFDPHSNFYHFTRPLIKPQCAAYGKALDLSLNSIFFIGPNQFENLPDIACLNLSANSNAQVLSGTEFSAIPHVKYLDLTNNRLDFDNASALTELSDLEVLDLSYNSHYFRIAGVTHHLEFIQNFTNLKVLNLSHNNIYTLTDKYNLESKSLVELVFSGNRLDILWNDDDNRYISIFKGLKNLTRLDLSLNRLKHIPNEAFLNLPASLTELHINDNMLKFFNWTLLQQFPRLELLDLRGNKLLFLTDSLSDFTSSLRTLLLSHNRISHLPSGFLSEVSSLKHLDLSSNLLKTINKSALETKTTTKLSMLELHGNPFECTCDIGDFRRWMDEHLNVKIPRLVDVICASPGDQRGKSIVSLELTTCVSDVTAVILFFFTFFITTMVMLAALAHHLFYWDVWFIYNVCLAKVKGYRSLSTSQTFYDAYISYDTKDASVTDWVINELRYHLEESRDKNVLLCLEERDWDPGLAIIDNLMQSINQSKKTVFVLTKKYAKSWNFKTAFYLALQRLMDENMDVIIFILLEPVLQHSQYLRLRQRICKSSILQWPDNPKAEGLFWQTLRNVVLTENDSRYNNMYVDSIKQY
In words: HEK-Blue hTLR8 SEAP reporter assay. The class given is cell-based. To be noted: HEK-Blue hTLR8 cells, SEAP in supernatant. As for the experimental part:
Starting with the lead compound, 76 pyrido [3,2-d] pyrimidine derivatives were synthesized and optimized through structural modification from the deep hydrophobic region to the solvent-exposed region. Seventy-six compounds were evaluated for their in vitro activity using HEK-Blue hTLR7 or hTLR8 reporter cells, stably expressing the human TLR7 or TLR8 and an NF-κB/AP1-inducible SEAP (secreted embryonic alkaline phosphatase reporter gene).
Add 20 μl various concentrations of TLR agonists (10 dilutions) and in a 96-well plate. Then HEK-Blue hTLR7 and hTLR8 cells were suspended to 4 × 10^5 cells/ml in HEK-Blue Detection (InvivoGen) medium and added 180 μl per well. The plates were incubated at 37°C in 5% CO2 for 12 ~ 16 h. Stimulation with a hTLR7or hTLR8 ligand activates NF-κB to induce the production of secreted embryonic alkaline phosphatase (SEAP) in the culture supernatant. SEAP could be measured at OD630nm on an ELISA plate reader.

Another test relates to PBMCs. In words: Inflammatory cytokine release from PBMCs (Legend-plex). The class given is cell-based, human. To be noted: PBMC culture supernatant 48 h after stimulation. As for the experimental part:
Then, a total of 13 human inflammatory cytokines and chemokines (IL-1β, IFN-α2, IFN-γ, TNF-α, CCL2, IL-6, CXCL8, IL-10, IL-12p70, IL-17A, IL-18, IL-23, and IL-33) were measured in the culture supernatant 48 h after stimulation and compared with two healthy donors. Only 8 out of 13 became detectable and largely fell into the proinflammatory cytokines (IL-1β, IL-6, IL-18, IL-23, and TNF-α), Th1-and Th2-type cytokines (IL-10 and IFN-γ), and type I (IFN-α2) and type II (IFN-γ) interferons (Figures 2B–I).
The supernatants from PBMCs culture were collected and stored at-20°C until analysis. For the Multi-cytokines assay, the Legend-plex Human Inflammation Panel 1 kit (Biolegend) was used according to the manual. Thirteen human inflammatory cytokines/chemokines were measured, including IL-1β, IFN-α2, IFN-γ, TNF-α, MCP-1 (CCL2), IL-6, IL-8 (CXCL8), IL-10, IL-12p70, IL-17A, IL-18, IL-23, and IL-33.

Another test relates to NF-κB p65 in U1 cells. Briefly: Nuclear phospho-p65-S536 in U1 cells (western blot). To be noted: 1 μM, 30 min, 37°C. A general note: A western blot detects proteins with antibodies after separation by electrophoresis.
The test system of test [1] is U1 monocytic cell line (latent HIV-1). Briefly: HIV-1 p24 production in latently infected U1 cells (ELISA). A general note: ELISA stands for enzyme-linked immunosorbent assay.
Test [2] has as its system J-LAT CD4 T cell line (latent HIV-1). In words: J-LAT activation by supernatant of agonist-stimulated healthy donor PBMCs (GFP+ cells, FACS). As to conditions: 48 h, highest concentration 16 μM.

Protocol for NF-κB p65 in U1 cells: For measuring NF-kB p65 and phosphor-p65 S536, 5 × 10^6 U1 cells were stimulated by 1 μM TLR7/8 agonists D018 (7/8), B-130a (8), GS9620 (7), and DMSO (negative control) for 30 min. Nuclear proteins were extracted by NE-PER Nuclear and Cytoplasmic Extraction Reagents (Pierce) and measured the concentration using BCA protein measure kit (Thermo).
Equal amounts of extracts were loaded on the 10% polyacrylamide gel SDS-PAGE. Then proteins were electro-transferred to nitrocellulose membranes 300 mA for 90 min and incubated with blocking buffer (5% nonfat dry milk and 0.1% Tween 20 in TBS) for 1 h at room temperature. NF-kB p65, phosphorylate p65-s529, and PCNA (as the control of nuclear protein) were separately detected by NF-κB p65 Mouse mAb (CST), Phospho-NF-κB p65 Ser536 Rabbit mAb (CST) and PCNA Rabbit mAb (CST) in blocking buffer overnight at 4°C. After washing 5 times in TBST (1 × TBS + 0.1% Tween), the membranes were incubated with anti-mouse IgG (H + L) HRP (Promega) and anti-rabbit IgG (H + L) HRP (Promega) for 1 h at room temperature. After washing 5 times in TBST, membranes were incubated with ECL detection reagents (Bio-red) and then developed in Bio-red imager.

As for `CCCCNc1nc(N)nc2ccc(Cc3ccc(CN(C)C)cc3)nc12` [D018], the half-maximal effective concentration (EC50) on hTLR8 stood at 6.46 nM; in test [1] (Homo sapiens, read-out: EC50 of p24 production in U1), 70 nM. Also, in the test on PBMCs, the “release of inflammatory cytokines” value is “either equivalent (IL-6, IL-10, IL-23, and IFN-γ) or higher (IL-1β, IL-18, and TNF-α) than the commercially available R848”. For the same compound, the “nuclear phos-p65-S536” value in the test on NF-κB p65 in U1 cells was “significant increase”. Also, the “p24 production after TLR8 or MyD88 knockdown” value in test [1] (1 μM, TLR8- or MyD88-shRNA U1 vs sham-knockdown) was “essentially abolished the p24 production”. Further, the “GFP-positive J-LAT cells, PBMC supernatant” value in test [2] is “most potent”.

As a reminder, the EC50 is the concentration needed to bring the measured effect to its halfway point.

Source of the values: article PMC9911797, “Novel TLR7/8 agonists promote activation of HIV-1 latent reservoirs and human T and NK cells” (Frontiers in Microbiology, 2023).
